Earlier results, collected in patent US20020132846A1, “Use of gamma substituted gamma-butyrolactones to increase levels of their corresponding substituted gamma-hydroxybutyrate derivatives in humans” (priority 2001, published 2002).

Legend:
lactonase = conditions: oral ingestion, lactonase catalyzed hydrolysis; reference (7)
[1] = used according to prescribed dosing levels and schedules

For CC(O)CCC(=O)O (stereo not shown) [4-methyl substituted gamma-hydroxybutyrate], the “affinity for the GHB receptor” value (GHB receptor; compared with gamma-hydroxybutyrate itself) is listed as “greater affinity than gamma-hydroxybutyrate itself” and the “more potent at the receptor than gamma-hydroxybutyrate itself” value (GHB receptor; relative to gamma-hydroxybutyrate, reference (8)) is listed as 15%.

For O=C1CCCO1 [gamma-butyrolactone], the “formation of the parent compound gamma-hydroxybutyrate” value (lactonase) is listed as “rapidly forms the parent compound”.

In the case of O=C(O)CCCO [gamma-hydroxybutyrate], the “physical or psychological addiction” value [1] is listed as “no reports of physical or psychological addiction”.
